US20240293588A1, “THERAPEUTIC CONJUGATES” (Starpharma Pty Ltd, priority 2020, published 2024)

How the values were obtained:
ErbB2-ECD = ErbB2-ECD (Homo sapiens, UniProt P04626); experiment: SPR binding studies with immobilized ErbB2-ECD; conditions: result in words
Description: Using a ProteOn XPR36 instrument, ErbB2-ECD was immobilized at 25° C. onto a GLC sensor chip surface (Bio-Rad), with HBS-P+ running buffer (10 mM HEPES, pH 7.4, 150 mM NaCl, 0.05% Tween 20). Standard amine coupling methodology described in Bio-Rad's amine coupling kit was utilized for this immobilization. Lane 1 was activated with a 50:50 mixture of EDC (0.5 mM) and sulfo-NHS (0.125 mM). ErbB2 protein was diluted to […] in 10 mM sodium acetate, pH 5.0 and injected over the activated surface channel. Any remaining activated sites were blocked with 1 M ethanolamine-HCl, pH 8.5.
All SPR binding experiments were performed at 25° C. using HBS-EP+/BSA (10 mM HEPES, pH 7.4, 150 mM NaCl, 3 mM EDTA, 0.05% Tween20, 0.1 mg/ml BSA) as the instrument running buffer (RB). Following immobilization procedures, various concentrations of anti-ErbB2 affibodies and their MMAE-dendrimer conjugates were injected at 60 μl/min over immobilized ErbB2 proteins and their association monitored for 90 sec. Running buffer was subsequently injected over bound Ab-ErbB2 complexes and dissociation monitored for up to 60 min. […] All binding measurements were performed in triplicate.
Collected experimental data were processed using Scrubber-Pro software (www.biologic.com.au). […]

NCI-N87 cells = experiment: GI50 panel (MTT assay), NCI-N87; type: cell-based; conditions: Homo sapiens, NCI-N87, 72 h
OE-19 cells = experiment: GI50 panel (MTT assay), OE19; type: cell-based; conditions: Homo sapiens, OE19, 72 h
SKOV-3 cells = experiment: GI50 panel (MTT assay), SKOV-3; type: cell-based; conditions: Homo sapiens, SK-OV-3, 72 h
SK-Br-3 cells = experiment: GI50 panel (MTT assay), SK-BR-3; type: cell-based; conditions: Homo sapiens, SK-BR-3, 72 h
MDA-MB-231 cells = experiment: GI50 panel (MTT assay), MDA-MB-231; type: cell-based; conditions: Homo sapiens, MDA-MB-231, 72 h
MDA-MB-231/HER2 tumours = experiment: Tumour distribution of tritium-labelled MMAE-conjugated dendrimers; type: in vivo, NOD/SCID mice; conditions: 3H label, 0.5 μCi via tail vein, 48 h, mean±SEM
Description: MDA-MB-231/HER2 cells (5×10^6 cells in 50 μL of PBS:Matrigel) were transplanted into the 4th mammary fat pad of female NOD/SCID mice (5-7 weeks old) subcutaneously. Solid tumours were allowed to grow to 100 mm^3 (approximately 3-4 weeks). The mice were divided into two different groups, consisting of six mice in each group. Compound 72 (control group) or Compound 127 (targeted group) (0.5 μCi in 100 μL, PBS pH 7) was then injected via tail vein under isoflurane sedation. The mice were anaesthetised with isoflurane 48 h later, and blood collected via cardiac puncture immediately prior to cervical dislocation. Selected organs (including tumour, liver, spleen, kidney, pancreas, lung, heart and brain) were subsequently removed, weighed and processed for tritium (^3H) biodistribution.

[1] = target: T1, HER2 (human epidermal growth factor receptor 2) on cells (human, UniProt P04626 23-1255); experiment: flow cytometry (Cy5), SKOV-3 cells, 24 h
T1 construct: whole, on cells; also called ERBB2; HER2 receptor

[2] = target: T1, HER2 (human epidermal growth factor …); experiment: flow cytometry (Cy5), MDA-MB-231/HER2 cells, 24 h

Azido-PEG24CO—[N(PN)2][Lys]2[Lys]4[Lys]8[(α-NHGlu-vc-PAB-MMAE)8(ε-NH-COPEG2000)8], G3 [Compound 66]
binding to ErbB2 proteins (SPR) (ErbB2-ECD): No binding

Azido-PEG24CO—[N(PN)2][Lys]2[Lys]4[Lys]8[(α-NHGlu-vc-PAB-MMAE)8(ε-NH-COPEG1100)8], G3 [Compound 65]
binding to ErbB2 proteins (SPR) (ErbB2-ECD): No binding

CS(=O)(=O)CCNCc1ccc(-c2ccc3ncnc(Nc4ccc(OCc5cccc(F)c5)c(Cl)c4)c3c2)o1 [Lapatinib, reference compound]
GI50 (NCI-N87 cells): 8.1 nM | GI50 (OE-19 cells): 200 nM | GI50 (SKOV-3 cells): 7200 nM | GI50 (SK-Br-3 cells): 138 nM | GI50 (MDA-MB-231 cells): 112000 nM

(MeTzPh)PEG4CO-NHPEG24CO—[N(PN)2][Lys]2[^3H-Lys]4[Lys]8[(α-NHGlu-VC-PAB-MMAE)8(ε-NH-COPEG1100)8], G3 [Compound 72]
accumulation in HER2 positive tumours (MDA-MB-231/HER2 tumours): 1.88 % dose/g | blood concentration (MDA-MB-231/HER2 tumours): 3.69 % dose/g

B1: Nanobody*-N3/DBCO-NHCO-PEG12TCO/(MeTzPh)PEG4CO-NHPEG24CO-[N(PN)2][Lys]2[Lys]4[Lys]8[((α-NHCy5)1(α-NHGlu-VC-PAB-MMAE)7)(ε-NH-COPEG1100)8], Compound 123 (VHH)
VHH: EVQLVESGGSLVQPGGSLRLSCAASGFTFDDYAMSWVRQVPGKGLEWVSSINWSGTHTDYADSVKGRFTISRNNANNTLYLQMNSLKSEDTAVYYCAKNWRDAGTTWFEKSGSAGQGTQVTVSS
modifications: C-terminal # (unnatural amino acid, p-azido-phenylalanine) clicked to DBCO-NHCO-PEG12-TCO, joined to the tetrazine at the core of the G3 lysine dendrimer (1 Cy5, 7 Glu-VC-PAB-MMAE, 8 PEG1100)
notes: T0004 r280 names the protein Nanobody*; No synthesis paragraph for this compound; also called 2D3 nanobody targeted dendrimer
fold fluorescence over Compound 71 (untargeted control) [1]: ~16 fold | fold fluorescence over Compound 71 (untargeted control) [2]: ~9 fold
